# Data from patent US8435976B2, “4-substituted pyridin-3-yl-carboxamide compounds and methods of use” (F. Hoffmann-La Roche, priority 2009, dated 2013).
# What was measured:
# [1] = tested on: bone marrow aspirate samples from multiple myeloma patients; test: Primary cancer cell isolates from bone marrow aspirates, apoptosis; format: cell-based, human; conditions: 0.3 or 1.0 micromolar; two of four cases
# Protocol: Shown in FIG. 2 are a summary of Combination Index values for Compound 3 in combination with different agents. The values shown were calculated at the ED50 of the dose response curves which were similar in nature to those exemplified in FIG. 1. Each dot in the plot represents the test results obtained with a different multiple myeloma cell line with a different combination of test agents, including Compound 3 plus a second agent as labeled on the abscissa. The horizontal line on the plot itself indicates the mean of all CI values for a given test agent. Combinations of Compound 3 with clinical standard of care chemotherapeutic agents including dexamethasone, lenalidomide, bortezomib, and melphalan produced variable results wherein CI values between about 0.1 and about 1 were obtained, with means generally greater than about 0.5. Compared to these clinically active agents, unexpectedly uniform and unexpectedly potent combination test results were obtained for Compound 3 in combination with Formula A, in which the majority of calculated CI values were less than about 0.2 and the mean across all cancer cell lines tested was about 0.2. In addition to these findings, bone marrow aspirate samples from multiple myeloma patients […] to test Formula A and Compound 3 singly and in combination on these primary cancer cell isolates.
# [2] = tested on: RPMI 8226.x1 multiple myeloma xenografts; test: RPMI 8226.x1 multiple myeloma xenograft; format: in vivo, SCID Beige mice
# Protocol: (§1) The efficacy of the combinations of the invention may be measured in vivo by implanting allografts or xenografts of cancer cells in rodents and treating the tumor-bearing animals with the combinations. Variable results are to be expected depending on the cell line, the presence or absence of certain mutations in the tumor cells, the sequence of administration of a formula I compound and chemotherapeutic agent, dosing regimen, and other factors. Subject mice were treated with drug(s) or control (Vehicle) and monitored over several weeks or more to measure the time to tumor doubling, log cell kill, and tumor inhibition.
# Dosing of all cohorts commenced on Day 0 when the mean tumor volume of all cohorts was between about 100 to 200 cubic millimeters.
# [3] = tested on: MM1.s multiple myeloma xenografts; test: MM1.s multiple myeloma xenograft; format: in vivo, SCID mice; conditions: Compound 3 50 mg/kg po qd, day 18 vs vehicle
# Protocol: as §1
# Dosing of all cohorts commenced on Day 0 when the mean tumor volume of all cohorts was between about 200 to 300 cubic millimeters. […] Formula A was tested at as a single agent at a single dose level of 75 mg/kg for which a lesser TGI was obtained at day 18.
# [4] = tested on: OPM-2 multiple myeloma xenografts; test: OPM-2 multiple myeloma xenograft; format: in vivo, SCID Beige mice; conditions: Compound 3 50 mg/kg po qd x21, day 23 vs vehicle
# Protocol: as §1
# Dosing of all cohorts commenced on Day 0 when the mean tumor volume of all cohorts was between about 100 to 200 cubic millimeters. […] Formula A was tested at as a single agent at a single dose level of 75 mg/kg for which a similar TGI was obtained at day 23.
compound,measurement,setting,value
"Nc1sc(-c2c(F)cccc2F)nc1C(=O)Nc1cnccc1N1CCC[C@H](N)C1 [Example 3, (S)-5-amino-N-(4-(3-aminopiperidin-1-yl)pyridin-3-yl)-2-(2,6-difluorophenyl)thiazole-4-carboxamide]",activity on primary cancer cell isolates,[1],only limited single agent activity
same,effect on tumor growth at the lowest dose,[2]; Compound 3 5 mg/kg po qd x21,"trend toward accelerated tumor growth, though this trend was not statistically significant"
same,tumor growth inhibition (TGI),"[2]; Compound 3 50 mg/kg po qd x21, day 27 vs vehicle",about 70%
same,tumor growth inhibition (TGI),[3],about 60%
same,tumor growth inhibition (TGI),[4],about 45%
